# Entries after “also recorded” stand apart in the source; their conditions may differ. Ends that are not written are not given here.
# Legend:
# [1] = Solubility testing of parent and truncated peptides (protocol not stated); format: physicochemical
# From the text: For example, the amino acid sequence of CJI-44.8 (SEQ ID NO: 132) was derived from the protein sequence of Cry j I by first identifying those regions of the parent protein with high T cell reactivity using the set of overlapping peptides 20-mers as discussed in Example 6, and shown in FIG. 13, which covered the entire sequence. […] Since these peptides were adjacent to each other in the native protein sequence and overlapped by 10 residues, peptide CJI-44 was synthesized to capture the total T cell reactivity of both peptides. CJI-44 (SEQ ID NO: 90) (FIG. 18) is a peptide 30-mer which contains all of the sequence present in the two 20-mers CJI-31 (SEQ ID NO: 54) and CJI-32 (SEQ ID NO: 56).
# (§1) Additional truncation of two C-terminal residues yielded 44.2 (SEQ ID NO: ). […] Thus, 44.2 (SEQ ID NO: ) was further modified by the addition of charged (hydrophilic residues) to the N-terminus and by replacement of the hydrophobic residue Val with the less hydrophobic residue Ala. […] CJI-44.8 (SEQ ID NO: 132) was stable and soluble at greater than 5 mg/ml over the pH range pH6-pH8 in an aqueous buffer.
# [2] = Solubility, single pH point protocol procedure; format: physicochemical; conditions: 100 mM sodium phosphate buffer without mannitol, constant agitation
# Method: as §1
# [3] = Solubility, pH range protocol procedure; format: physicochemical; conditions: aqueous sodium phosphate buffer, pH range pH6 to pH8
# From the text: (§2) Of the above group of modified peptides, several peptides have been identified as “unique” modified peptides. […] Certain modified peptides are characterized as “unique” due to the difficulties encountered when developing a modified peptide which meets all of the stringent requirements of a “unique” peptide defined herein. In many cases, multiple modifications of a parent peptide are attempted prior to identifying a modified derivitive peptide which meets all the characteristics of a “unique” modified peptide. Unique modified peptides are particularly useful as candidate peptides for formulating injectable multipeptide therapeutic formulations of the invention because “unique” modified peptides are soluble and stable in the same physiologically acceptable pH range as well as elicit the necessary T cell reactivity of a therapeutic peptide of the invention. “Unique” modified peptides of the invention include but are not limited to the following group of modified peptides: CJ1-24.5, CJ1-43.39, CJ1-43.50, CJ1-44.8, and CJ1-44.9 all as shown in FIGS. 20 and 44. Example 21 describes the development and identification of “unique” modified peptides of the invention.
# as §1
# [4] = Stability in aqueous buffer; format: physicochemical; conditions: pH6 to pH8
# From the text: as §2, §1
# Arthus reaction = conditions: Usui et al. (1990); cited from earlier work
# patients' plasma IgE = assay: Direct binding assay of IgE to Cry j I, Cry j II and recombinant Cry j II (Example 18); set-up: species or system human
# Method: Costar assay plates were coated with Cry j I or Cry j II at 2 μg/mL or recombinant Cry j II preparation at 10 μg/mL (approximately 20% pure) in a volume of 50 μL overnight at 4° C. The coating antigens were removed and the wells were blocked with 0.5% gelatin, PVP (polyvinyl pyrolidine) 1 mg/mL in PBS, 200 μL/well for 2 hours at room temperature. The anti-Cry j I monoclonal antibody, 4B11, was serially diluted in PBS-Tween 20 starting at a 1:1000 dilution. The human plasma were serially diluted in PBS-Tween at a starting dilution of 1:2. For this set 23 plasma samples from patients symptomatic for Japanese cedar pollen allergy chosen for IgE binding analysis. The first antibody incubation proceeded overnight at 4° C. Following three washes with PBS-Tween the second antibodies were added (biotinylated goat anti-mouse Ig or goat anti-human IgE both at 1:2000) and incubated for two hours at room temperature at 100 μL/well. After washing 3 times, […]. This solution was removed and streptavidin-HRPO diluted to 1:10,000, was added at 100 μL/well. The color was allowed to develop for 2-5 minutes. The reaction was stopped by the addition of 100 μL/well of 1M phosphoric acid. Plates were read on a Microplate IL310 Autoreader (Biotek Instruments, Winooski, Vt.) with a 450 nm filter. The absorbance levels of duplicate wells were averaged. A positive binding result, indicated by a plus sign is determined to be a reading of two-fold or greater above background (no first antibody) at the second dilution of plasma ([…]).
# [5] = tested on: Cry j II reactive T cells; assay: T cell proliferation assay, Cry j II primed T cell lines (Example 19); format: cell-based, human
# Method: Long term T cell lines were established by stimulation of 2×10^6 PBL/ml in bulk cultures of complete medium (RPMI-1640, 2 mM L-glutamine, 100 U/ml penicillin/streptomycin, 5×10^−5M 2-mercaptoethanol, and 10 mM HEPES supplemented with 5% heat inactivated human AB serum) with 10 μg/ml of partially purified native Cry j II for 7 days at 37° C. in a humidified 5% CO2 incubator to select for Cry j II reactive T cells. This amount of priming antigen was determined to be optimal for the activation of T cells from most Japanese cedar pollen Cry j II allergic patients. Viable cells were purified by LSM centrifugation and cultured in complete medium supplemented with 5 units recombinant human IL-2/ml and 5 units recombinant human IL-4/ml for up to three weeks until the cells no longer responded to lymphokines and were considered “rested”. The ability of the T cells to proliferate to peptides Cry j IIA (SEQ ID NO: 185) and Cry j IIB (SEQ ID NO: 186), recombinant Cry j II (rCry j II) (SEQ ID NO: 134), purified native Cry j II, was then assessed. For assay, 2×10^4 rested cells were restimulated in the presence of 2×10^4 autologous Epstein-Barr virus (EBV)-transformed B cells (prepared as described in Example 6) (gamma-irradiated with 25,000 RADS) with 2-50 ’g/ml of rCry j II (SEQ ID NO: 134), purified native Cry j II, peptides Cry j IIA (SEQ ID NO: 185) and Cry j IIB (SEQ ID NO: 186), positive control (PHA), negative control (Amb a I.1), in a volume of […] complete medium in duplicate or triplicate wells in 96-well round bottom plates for 2-4 days. […] Each well then received 1 μCi tritiated thymidine for 16-20 hours. The counts incorporated were collected onto glass fiber filter mats and processed for liquid scintillation counting. The maximum response in a titration of each peptide is expressed as the stimulation index (S.I.). The S.I. is the counts per minute (CPM) incorporated by cells in response to peptide, divided by the CPM incorporated by cells in medium only. A positivity index may be calculated by multiplying the mean S.I. (indicated above each bar in FIGS. 42 and 43) by the percentage of individuals responding to the peptide (indicated in parentheses above each bar in FIGS. 42 and 43). […]
# IgE antibodies = conditions: Sakaguchi (1990), cited from earlier work
molecule,measurement,setting,value
DVFYNGAYFVSSGKYEGGNIYTKKEAFNVE [CJ1-44],solubility,"[1]; protocol not stated, read-out: solubility",< 5000 µg/mL
DEENGAYFVSSGKYEGGNIYTKKEAFNVE [CJ1-44.6],solubility,[2],increased solubility
DENGAYFVSSGKYEGGNIYTKKEAFNAE [CJ1-44.5],solubility,[2],increased solubility
NGAYFVSSGKYEGGNIYTKKEAFN [CJ1-44.2],solubility,[1]; truncated analogs of CJI-44,solubility was improved in these sequences it still did not reach the standard
NGAYFVSSGKYEGGNIYTKKEAFNVE [CJ1-44.1],solubility,[1]; truncated analogs of CJI-44,solubility was improved in these sequences it still did not reach the standard
DEEGAYFVSSGKYEGGNIYTKKEAFNVE [CJ1-44.8],solubility,[3],> 5000 µg/mL
same,solubility,[2],very soluble
same,stability,[4],stable
"Sugi basic protein (i.e., Cry j I)-pullulan conjugate: Sugi basic protein covalently linked to pullulan, Usui et al. (1990) (conjugate, UniProt P18632 22-374, looked up, pullulan conjugate) Pectate lyase 1: DNPIDSCWRGDSNWAQNRMKLADCAVGFGSSTMGGKGGDLYTVTNSDDDPVNPAPGTLRYGATRDRPLWIIFSGNMNIKLKMPMYIAGYKTFDGRGAQVYIGNGGPCVFIKRVSNVIIHGLYLYGCSTSVLGNVLINESFGVEPVHPQDGDALTLRTATNIWIDHNSFSNSSDGLVDVTLTSTGVTISNNLFFNHHKVMLLGHDDAYSDDKSMKVTVAFNQFGPNCGQRMPRARYGLVHVANNNYDPWTIYAIGGSSNPTILSEGNSFTAPNESYKKQVTIRIGCKTSSSCSNWVWQSTQDVFYNGAYFVSSGKYEGGNIYTKKEAFNVENGNATPQLTKNAGVLTCSLSKRC","ability to elicit the Arthus reaction, relative to native Sugi basic protein",Arthus reaction,"about 1,000 times lower"
"purified native Cry j II: second Japanese cedar pollen allergen, purified native protein (protein) RKVEHSRHDAINIFNVEKYGAVGDGKHDCTEAFSTAWQAACKNPSAMLLVPGSKKFVVNNLFFNGPCQPHFTFKVDGIIAAYQNPASWKNNRIWLQFAKLTGFTLMGKGVIDGQGKQWWAGQCKWVNGREICNDRDRPTAIKFDFSTGLIIQGLKLMNSPEFHLVFGNCEGVKIIGISITAPRDSPNTDGIDIFASKNFHLQKNTIGTGDDCVAIGTGSSNIVIEDLICGPGHGISIGSLGRENSRAEVSYVHVNGAKFIDTQNGLRIKTWQGGSGMASHIIYENVEMINSENPILINQFYCTSASACQNQRSAVQIQDVTYKNIRGTSATAAAIQLKCSDSMPCKDIKLSDISLKLTSGKIASCLNDNANGYFSGHVIPACKNLSPSAKRKESKSHKHPKTVMVENMRAYDKGNRTRILLGSRPPNCTNKCHGCSPCKAKLVIVHRIMPQEYYPQRWICSCHGKIYHP",frequency of IgE response,"patients' plasma IgE; 23 plasma samples, FIG. 40",less
same,plasma IgE binding response,patients' plasma IgE; patient #1034,very strong reactivity
same,plasma IgE binding response,"patients' plasma IgE; patient plasma samples, FIGS. 31-33",binds human IgE of some allergic patients; also recorded: lower overall response
same,T cell proliferative response,"[5]; 9 patients, FIG. 43",react
same,T cell proliferative response,"[5]; n=6 patients, FIG. 42",respond well
same,immunological cross-reactivity with Cry j I,IgE antibodies; Kawashima et al. (1992),no immunological cross-reactivity
same,allergic patients with IgE that only reacted with this allergen,IgE antibodies,14%

# — patent publication US8540999B2, “Allergenic proteins and peptides from Japanese cedar pollen” (Merck Patent GmbH, priority 1991, dated 2013)
